Drawing on US20220204539A1, “CD73 INHIBITORS” (BioArdis LLC, priority 2019, published 2022), this text covers IC50 for 16 compounds.

The structures appear in SMILES notation.

The target in this test is T1, Recombinant Human 5′-Nucleotidase (CD73) (Homo sapiens, UniProt P21589).
T1 construct: CHO derived CD73 (Trp27-Lys547), with a C-terminal 6-His tag; 6-His (C); purchased R&D 5795-EN; host or cells: CHO
T1 sequence (P21589 27-547): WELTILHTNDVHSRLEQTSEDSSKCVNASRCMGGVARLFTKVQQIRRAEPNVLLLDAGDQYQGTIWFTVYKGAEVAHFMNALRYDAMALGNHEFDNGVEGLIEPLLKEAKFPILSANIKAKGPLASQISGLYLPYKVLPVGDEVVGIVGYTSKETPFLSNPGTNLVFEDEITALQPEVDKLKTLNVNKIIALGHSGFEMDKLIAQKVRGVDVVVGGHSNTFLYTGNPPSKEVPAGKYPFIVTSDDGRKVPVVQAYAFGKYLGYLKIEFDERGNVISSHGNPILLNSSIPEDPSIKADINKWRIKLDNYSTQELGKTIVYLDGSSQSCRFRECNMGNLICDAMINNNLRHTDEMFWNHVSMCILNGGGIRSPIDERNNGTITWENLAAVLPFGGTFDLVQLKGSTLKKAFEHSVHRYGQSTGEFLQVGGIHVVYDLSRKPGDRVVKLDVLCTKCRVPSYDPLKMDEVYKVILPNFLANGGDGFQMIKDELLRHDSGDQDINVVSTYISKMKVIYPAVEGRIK
Nature of the test: CD73 Enzyme Assay. The format is biochemical. To be noted: human CD73 0.5 nM, AMP 30 μM, PiColorLock phosphate detection; read-out: Potency (IC50, CD73 enzyme assay). An excerpt:
Soluble recombinant CD73 catalyzes the conversion of adenosine monophosphate (AMP) to adenosine and inorganic phosphate. The phosphate detection reagent, PiColorLock™ (Innova Bioscience, Cat #303-0125) is based on the change in absorbance of the dye malachite green in the presence of inorganic phosphate (Pi) and this property can be exploited to measure any enzyme that generates Pi. Recombinant Human 5′-Nucleotidase (CD73) (R&D #5795-EN, CHO derived CD73 (Trp27-Lys547), with a C-terminal 6-His tag) was used in the enzymatic assay. This assay was run in a 384-well plate format (Corning® NBS™ 384 well plates, Cat #3640). The basic assay procedure involves two steps: 1) Enzyme reaction: The CD73 enzyme (R&D #5795-EN) is incubated in the presence or absence of compounds. AMP (sigma, cat #01930) is added to start the […] reaction. 2) Detection step: Gold mix is added to the assay system, then stabilizers are added. After incubation the absorbance of the solution is read at OD 635 nm. The recorded OD signal is proportional to the enzyme activity.
Briefly, 25 μl human CD73 (0.5 nM final concentration) in the enzymatic buffer solutions (20 mM Tris, 25 mM NaCl, 1 mM MgCl2, pH 7.5, 0.005% Tween-20) were mixed with various concentrations of the test compound (dissolved in 100% DMSO). These solutions were incubated for 15 min at 25° C., and subsequently 25 μl AMP (30 μM final concentration) was added to start the reaction. The final reaction mixture of enzyme-substrate-compound was incubated for 20 min at 37° C. Meanwhile ‘Gold mix’ was prepared shortly before use by adding 1/100 vol. of accelerator to the PiColorLock™ Gold reagent. 12 μL/well of the ‘Gold mix’ was added to assay plate containing 50 μL enzyme reaction buffer and incubated at 25° C. for 5 min. 5 μL/well stabilizer was added to the assay plate and incubated at 25° C. for 30 min. The absorbance of the well solutions was measured at 635 nm on a Spark 10M instrument (TECAN).
The percent (%) inhibition at each concentration of a compound was calculated relative to the OD value in the Max and Min control wells contained within each assay plate. The Max control wells contained enzyme and substrate as 0% inhibition, and the M control wells only contained substrate without enzyme as 100% inhibition. The concentrations and percent inhibition values for a test compound are plotted and the concentration of the compound required to achieve 50% inhibition (IC50) was determined with a four-parameter logistic dose response equation.
`O=P(O)(O)CP(=O)(O)OC[C@H]1OC(c2cnc3c(NCc4ccccc4)ncnn23)[C@@H](F)[C@@H]1O` (stereo in doubt) [Compound 3, [({[(2R,3R,4S,5S)-5-[4-(benzylamino)imidazo[2,1-f][1,2,4]triazin-7-yl]-4-fluoro-3-hydroxyoxolan-2-yl]methoxy}(hydroxy)phosphoryl)methyl]phosphonic Acid]: the IC50 (usually the concentration that gives 50% inhibition) is above 1000 nM. Under `CC(C)(C)[C@H]1CCCN1c1nc(Cl)nn2c([C@@H]3O[C@H](COP(=O)(O)CP(=O)(O)O)[C@@H](O)[C@H]3O)cnc12` [Compound 51, (((((2R,3S,4R,1S)-5-(4-((R)-2-(tert-butyl)pyrrolidin-1-yl)-2-chloroimidazo[2,1-f][1,2,4]triazin-7-yl)-3,4-dihydroxytetrahydrofuran-2-yl)methoxy)(hydroxy)phosphoryl)methyl)phosphonic Acid] stands 10 to 99 nM; under `CC(C)OC(=O)OCOP(=O)(CP(=O)(O)OC[C@H]1O[C@@H](c2cnc3c(NC4CCCC4)nc(Cl)nn23)[C@H](O)[C@@H]1O)OCOC(=O)OC(C)C` [Compound 70, (((((((2R,3S,4R,5S)-5-(2-chloro-4-(cyclopentylamino)imidazo[2,1-f][1,2,4]triazin-7-yl)-3,4-dihydroxytetrahydrofuran-2-yl)methoxy)(hydroxy)phosphoryl)methyl)phosphoryl)bis(oxy)) bis(methylene) diisopropyl bis(carbonate)], 100 to 999 nM; under `O=P(O)(O)CP(=O)(O)OC[C@H]1O[C@@H](c2cnc3c(NCC4CCCO4)nc(Cl)nn23)[C@H](O)[C@@H]1O` (stereo partly drawn) [Compound 13, (((((2R,3S,4R,1S)-5-(2-chloro-4-(((tetrahydrofuran-2-yl)methyl)amino)imidazo[2,1-f][1,2,4]triazin-7-yl)-3,4-dihydroxytetrahydrofuran-2-yl)methoxy)(hydroxy)phosphoryl)methyl) phosphonic Acid], 10 to 99 nM. With `O=P(O)(O)CP(=O)(O)OC[C@H]1O[C@@H](c2cnc3c(NC4CCCC4)nc(C4CC4)nn23)[C@H](O)[C@@H]1O` [Compound 60, (((((2R,3S,4R,1S)-5-(4-(cyclopentylamino)-2-cyclopropylimidazo[2,1-f][1,2,4]triazin-7-yl)-3,4-dihydroxytetrahydrofuran-2-yl)methoxy)(hydroxy)phosphoryl)methyl)phosphonic Acid], the half-maximal inhibitory concentration (IC50) fell in the range of 100 to 999 nM. Under `O=P(O)(O)CP(=O)(O)OC[C@H]1O[C@@H](c2coc3c(NCc4ccccc4)ncnc23)[C@H](O)[C@@H]1O` [Compound 81, (((((2R,3S,4R,5R)-5-(4-(benzylamino)furo[3,2-d]pyrimidin-7-yl)-3,4-dihydroxytetrahydrofuran-2-yl)methoxyxhydroxy)phosphoryl)methyl)phosphonic acid] stands 10 to 99 nM; under `O=P(O)(O)CP(=O)(O)OC[C@H]1O[C@@H](c2cnc3c(N[C@H]4CC[C@H](N5CCCCC5)C4)nc(Cl)nn23)[C@H](O)[C@@H]1O` [Compound 79, (((((2R,3S,4R,1S)-5-(2-chloro-4-(((1S,3S)-3-(piperidin-1-yl)cyclopentyl)amino)imidazo[2,1-f][1,2,4]triazin-7-yl)-3,4-dihydroxytetrahydrofuran-2-yl)methoxy)(hydroxy)phosphoryl)methyl)phosphonic Acid], below 10 nM. Consider `COCCOCCOP(=O)(CP(=O)(O)O)OC[C@H]1O[C@@H](c2cnc3c(NC4CCCC4)nc(Cl)nn23)[C@H](O)[C@@H]1O` (stereo partly drawn) [Compound 67, (((((2R,3S,4R,5S)-5-(2-chloro-4-(cyclopentylamino)imidazo[2,1-f][1,2,4]triazin-7-yl)-3,4-dihydroxytetrahydrofuran-2-yl)methoxy)(2-(2-methoxyethoxy)ethoxy)phosphoryl)methyl)phosphonic acid], for which the half-maximal inhibitory concentration (IC50) lay within 10 to 99 nM.

For `CN(C)[C@H]1CC[C@H](Nc2nc(Cl)nn3c([C@@H]4O[C@H](COP(=O)(O)CP(=O)(O)O)[C@@H](O)[C@H]4O)cnc23)C1` [Compound 25, (((((2R,3S,4R,5S)-5-(2-chloro-4-(((1S,3S)-3-(dimethylamino)cyclopentyl)amino)imidazo[2,1-f][1,2,4]triazin-7-yl)-3,4-dihydroxytetrahydrofuran-2-yl)methoxy)(hydroxy)phosphoryl)methyl)phosphonic acid], the half-inhibitory concentration (IC50) was in the range of 10 to 99 nM.

As to `COP(=O)(CP(=O)(OC)OC[C@H]1O[C@@H](c2cnc3c(NC4CCCC4)nc(Cl)nn23)[C@H](O)[C@@H]1O)OC` (stereo partly drawn) [Compound 57, ((2R,3S,4R,5S)-5-(2-chloro-4-(cyclopentylamino)imidazo[2,1-f][1,2,4]triazin-7-yl)-3,4-dihydroxytetrahydrofuran-2-yl)methyl methyl ((dimethoxyphosphoryl)methyl)phosphonate], the 50% inhibitory concentration (IC50) was above 1000 nM. As for `O=P(O)(O)CP(=O)(O)OC[C@H]1O[C@@H](c2cnc3c(OC4CCCC4)ncnn23)[C@H](O)[C@@H]1O` [Compound 61, (((((2R,3S,4R,1S)-5-(4-(cyclopentyloxy)imidazo[2,1-f][1,2,4]triazin-7-yl)-3,4-dihydroxytetrahydrofuran-2-yl)methoxy)(hydroxy)phosphoryl)methyl)phosphonic Acid], the half-maximal inhibitory concentration (IC50) lay in the range of 100 to 999 nM. Under `COP(=O)(CP1(=O)OCC[C@@H](c2cccc(Cl)c2)O1)OC[C@H]1O[C@@H](c2cnc3c(NC4CCCC4)nc(Cl)nn23)[C@H](O)[C@@H]1O` (stereo partly drawn) [Compound 59, ((2R,3S,4R,5S)-5-(2-chloro-4-(cyclopentylamino)imidazo[2,1-f][1,2,4]triazin-7-yl)-3,4-dihydroxytetrahydrofuran-2-yl)methyl methyl (((4S)-4-(3-chlorophenyl)-2-oxido-1,3,2-dioxaphosphinan-2-yl)methyl)phosphonate] stands above 1000 nM; under `N#CCCOP(=O)(CP(=O)(O)O)OC[C@H]1O[C@@H](c2cnc3c(NC4CCCC4)nc(Cl)nn23)[C@H](O)[C@@H]1O` (stereo partly drawn) [Compound 69, (((((2R,3S,4R,5S)-5-(2-chloro-4-(cyclopentylamino)imidazo[2,1-f][1,2,4]triazin-7-yl)-3,4-dihydroxytetrahydrofuran-2-yl)methoxy)(2-cyanoethoxy)phosphoryl)methyl) phosphonic acid], 10 to 99 nM; under `O=P(O)(O)CP(=O)(O)OC[C@H]1O[C@@H](c2cnc3c(NCC4CCC(O)CC4)nc(Cl)nn23)[C@H](O)[C@@H]1O` (stereo partly drawn) [Compound 77, (((((2R,3S,4R,1S)-5-(2-chloro-4-(((4-hydroxycyclohexyl)methyl)amino)imidazo[2,1-f][1,2,4]triazin-7-yl)-3,4-dihydroxytetrahydrofuran-2-yl)methoxy)(hydroxy)phosphoryl)methyl)phosphonic Acid], below 10 nM. Regarding `O=P(O)(O)CP(=O)(O)OC[C@H]1O[C@@H](c2cnc3c(NC4CCCC4)nc(Cl)nn23)[C@@H](F)[C@@H]1O` [Compound 7, (((((2R,3R,4S,5S)-5-(2-chloro-4-(cyclopentylamino)imidazo[2,1-f][1,2,4]triazin-7-yl)-4-fluoro-3-hydroxytetrahydrofuran-2-yl)methoxy)(hydroxy)phosphoryl)methyl)phosphonic acid], the IC50 lay within 10 to 99 nM.

Regarding `COP(=O)(CP(=O)(OC)OC[C@H]1O[C@@H](c2cnc3c(N4CC5CCCC5C4)nc(Cl)nn23)[C@@H](F)[C@@H]1O)OC` (stereo partly drawn) [Compound 76, ((2R,3R,4S,5S)-5-(2-chloro-4-(hexahydrocyclopenta[c]pyrrol-2(1H)-yl)imidazo[2,1-f][1,2,4]triazin-7-yl)-4-fluoro-3-hydroxytetrahydrofuran-2-yl)methyl methyl ((dimethoxyphosphoryl)methyl)phosphonate], the half-maximal inhibitory concentration (IC50) is above 1000 nM.
